Legend:
[1] = molecular target: T1, Tyrosine-protein kinase JAK1 (Homo sapiens, UniProt P23458); type: cell-based, Sf9
[2] = molecular target: T2, Tyrosine-protein kinase JAK3 (Homo sapiens, UniProt P52333); type: cell-based, Sf9
T2 sequence (P52333 whole entry): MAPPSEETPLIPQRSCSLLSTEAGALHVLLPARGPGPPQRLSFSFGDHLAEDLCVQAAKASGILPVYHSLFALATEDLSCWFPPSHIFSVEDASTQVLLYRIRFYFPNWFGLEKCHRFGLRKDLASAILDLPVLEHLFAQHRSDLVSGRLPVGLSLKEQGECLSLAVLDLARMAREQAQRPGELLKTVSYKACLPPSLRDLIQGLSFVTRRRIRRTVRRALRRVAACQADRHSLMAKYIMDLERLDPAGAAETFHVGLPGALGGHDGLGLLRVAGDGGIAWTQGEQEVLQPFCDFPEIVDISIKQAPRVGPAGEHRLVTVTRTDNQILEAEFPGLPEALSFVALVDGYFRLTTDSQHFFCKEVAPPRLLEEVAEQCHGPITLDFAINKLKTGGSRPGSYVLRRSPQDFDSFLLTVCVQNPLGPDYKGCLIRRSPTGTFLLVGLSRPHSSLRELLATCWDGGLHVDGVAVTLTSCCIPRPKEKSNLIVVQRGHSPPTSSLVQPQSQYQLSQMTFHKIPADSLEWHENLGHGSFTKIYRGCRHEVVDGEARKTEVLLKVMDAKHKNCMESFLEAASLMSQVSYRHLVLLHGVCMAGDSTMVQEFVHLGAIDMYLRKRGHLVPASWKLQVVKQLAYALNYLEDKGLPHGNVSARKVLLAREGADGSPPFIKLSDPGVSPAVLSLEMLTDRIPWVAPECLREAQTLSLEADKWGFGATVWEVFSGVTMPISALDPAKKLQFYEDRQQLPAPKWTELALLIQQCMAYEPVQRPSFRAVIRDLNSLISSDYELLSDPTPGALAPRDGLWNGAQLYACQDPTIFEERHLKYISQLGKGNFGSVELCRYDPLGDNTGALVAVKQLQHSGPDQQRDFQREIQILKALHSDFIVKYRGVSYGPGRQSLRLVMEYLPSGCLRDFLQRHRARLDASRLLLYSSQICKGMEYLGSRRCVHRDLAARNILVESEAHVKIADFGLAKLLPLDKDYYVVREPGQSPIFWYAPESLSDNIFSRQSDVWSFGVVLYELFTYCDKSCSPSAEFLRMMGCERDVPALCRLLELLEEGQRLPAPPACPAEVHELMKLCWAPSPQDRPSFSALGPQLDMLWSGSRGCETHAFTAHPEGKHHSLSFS

[3] = molecular target: T3, Non-receptor tyrosine-protein kinase TYK2 (Homo sapiens, UniProt P29597); type: cell-based, Sf9
[4] = molecular target: T1, Tyrosine-protein kinase JAK1; type: cell-based, BaF3
[5] = molecular target: T2, Tyrosine-protein kinase JAK3; type: cell-based, BaF3
[6] = molecular target: T3, Non-receptor tyrosine-protein kinase TYK2; type: cell-based, BaF3
JAK3/JAK1 [7] = molecular target: T4, JAK3/JAK1 (Homo sapiens, UniProt P23458+P52333); type: cell-based
JAK3/JAK1 [8] = molecular target: T4, JAK3/JAK1; type: cell-based, Blood
in vitro = conditions: human, plasma
Description: Fraction unbound in human plasma by equilibrium dialysis

T1 sequence (P23458 whole entry): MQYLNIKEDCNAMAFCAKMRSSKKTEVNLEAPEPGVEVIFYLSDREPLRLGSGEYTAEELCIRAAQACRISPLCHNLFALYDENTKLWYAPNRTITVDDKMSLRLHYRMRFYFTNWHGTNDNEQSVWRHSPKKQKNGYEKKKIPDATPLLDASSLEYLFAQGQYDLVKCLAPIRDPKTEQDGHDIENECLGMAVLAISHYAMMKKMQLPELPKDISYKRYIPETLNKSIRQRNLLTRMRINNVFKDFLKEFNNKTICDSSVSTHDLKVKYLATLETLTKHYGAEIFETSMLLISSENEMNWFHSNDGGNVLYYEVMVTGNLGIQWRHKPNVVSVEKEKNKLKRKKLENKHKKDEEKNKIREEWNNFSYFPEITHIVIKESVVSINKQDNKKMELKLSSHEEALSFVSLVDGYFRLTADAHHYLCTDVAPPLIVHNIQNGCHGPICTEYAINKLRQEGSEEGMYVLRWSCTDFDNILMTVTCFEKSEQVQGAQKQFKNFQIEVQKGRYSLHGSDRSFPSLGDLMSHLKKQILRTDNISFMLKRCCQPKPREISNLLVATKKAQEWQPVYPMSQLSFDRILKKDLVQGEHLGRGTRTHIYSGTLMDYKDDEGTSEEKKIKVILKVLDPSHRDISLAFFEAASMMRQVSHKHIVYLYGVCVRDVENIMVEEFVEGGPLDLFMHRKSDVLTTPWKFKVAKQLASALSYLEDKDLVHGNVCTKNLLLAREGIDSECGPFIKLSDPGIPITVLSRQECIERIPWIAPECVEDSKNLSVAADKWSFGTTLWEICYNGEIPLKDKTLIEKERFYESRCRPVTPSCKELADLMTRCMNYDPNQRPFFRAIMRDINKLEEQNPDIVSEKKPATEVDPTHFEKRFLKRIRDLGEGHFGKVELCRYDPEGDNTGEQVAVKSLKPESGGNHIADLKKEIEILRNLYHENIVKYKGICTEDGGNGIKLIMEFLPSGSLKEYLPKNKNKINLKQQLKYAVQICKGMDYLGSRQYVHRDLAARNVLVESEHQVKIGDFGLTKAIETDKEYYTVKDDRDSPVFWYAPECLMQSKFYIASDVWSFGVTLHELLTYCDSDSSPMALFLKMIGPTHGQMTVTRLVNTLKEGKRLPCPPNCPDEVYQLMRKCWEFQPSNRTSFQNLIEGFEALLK
T3 sequence (P29597 whole entry): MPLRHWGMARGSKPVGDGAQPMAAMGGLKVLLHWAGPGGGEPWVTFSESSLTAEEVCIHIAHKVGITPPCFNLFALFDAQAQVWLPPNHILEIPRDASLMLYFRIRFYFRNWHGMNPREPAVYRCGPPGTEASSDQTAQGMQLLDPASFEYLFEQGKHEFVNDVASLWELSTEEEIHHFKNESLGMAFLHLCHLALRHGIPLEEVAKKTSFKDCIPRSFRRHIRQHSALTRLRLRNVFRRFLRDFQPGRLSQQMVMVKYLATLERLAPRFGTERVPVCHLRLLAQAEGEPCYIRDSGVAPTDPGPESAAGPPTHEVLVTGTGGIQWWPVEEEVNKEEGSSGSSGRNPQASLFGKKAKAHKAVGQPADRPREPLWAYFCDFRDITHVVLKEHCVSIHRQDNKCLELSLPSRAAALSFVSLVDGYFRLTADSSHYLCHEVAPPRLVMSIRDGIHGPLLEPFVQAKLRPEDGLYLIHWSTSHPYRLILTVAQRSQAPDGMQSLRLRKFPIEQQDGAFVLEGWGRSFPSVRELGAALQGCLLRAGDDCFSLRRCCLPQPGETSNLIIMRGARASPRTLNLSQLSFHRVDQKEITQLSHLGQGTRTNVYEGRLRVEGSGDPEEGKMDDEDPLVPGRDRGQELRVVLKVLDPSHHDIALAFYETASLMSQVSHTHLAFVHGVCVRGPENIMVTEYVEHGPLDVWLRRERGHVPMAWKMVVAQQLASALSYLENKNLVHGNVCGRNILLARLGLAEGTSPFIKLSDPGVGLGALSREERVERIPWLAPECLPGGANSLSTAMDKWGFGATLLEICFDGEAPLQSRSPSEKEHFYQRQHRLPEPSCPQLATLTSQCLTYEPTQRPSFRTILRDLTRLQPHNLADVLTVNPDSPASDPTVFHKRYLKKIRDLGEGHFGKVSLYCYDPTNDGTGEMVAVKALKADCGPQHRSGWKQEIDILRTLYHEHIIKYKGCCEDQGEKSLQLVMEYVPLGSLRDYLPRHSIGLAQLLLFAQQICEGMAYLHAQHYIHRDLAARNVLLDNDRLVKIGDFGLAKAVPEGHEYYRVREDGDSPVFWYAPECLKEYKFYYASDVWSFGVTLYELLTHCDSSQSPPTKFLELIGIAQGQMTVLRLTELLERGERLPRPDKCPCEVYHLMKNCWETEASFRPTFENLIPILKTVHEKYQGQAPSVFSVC
T4 sequence (P23458 whole entry, one chain of several): as the sequence (P23458 whole entry) above

SMILES | IC50 [1] | IC50 [2] | IC50 [3] | IC50 [4] | IC50 [5] | IC50 [6] | IC50 (JAK3/JAK1 [7]) | IC50 (JAK3/JAK1 [8]) | fraction unbound (in vitro)
COCCNC(=O)c1cnc(N)c2cc(-c3ccc(S(=O)(=O)NC(C)(C)C)cc3)sc12 | 129 nM | 1280 nM | 1480 nM | 6610 nM | > 25000 nM | > 25000 nM | 4450 nM | > 25000 nM | 0.023
CN(C)CCNC(=O)c1cnc(N)c2cc(-c3ccc(S(=O)(=O)NC(C)(C)C)cc3)sc12 | 708 nM | 3330 nM | 4100 nM | > 25000 nM | > 25000 nM | > 25000 nM | > 25000 nM | > 25000 nM | 0.064
CC(C)(C)NS(=O)(=O)c1ccc(-c2cc3c(N)ncc(C(=O)NCCCN4CCOCC4)c3s2)cc1 | 206 nM | 645 nM | 1550 nM | 12600 nM | > 25000 nM | > 25000 nM | – | – | –
NC(=O)c1cnc(N)c2cc(-c3ccc(N4CCOCC4)cc3)sc12 | 39 nM | 18 nM | 66 nM | 748 nM | > 25000 nM | > 25000 nM | 548 nM | > 25000 nM | –
CC(C)(C)NS(=O)(=O)c1ccc(-c2cc3c(N)ncc(C(=O)NCCN4CCCCC4)c3s2)cc1 | 654 nM | 2380 nM | 2670 nM | > 25000 nM | > 25000 nM | > 25000 nM | – | – | –
CN(C)C(=O)c1cnc(N)c2cc(-c3ccc(N4CCOCC4)cc3)sc12 | 3100 nM | 1660 nM | 5150 nM | – | – | – | – | – | –
CC(C)(C)NS(=O)(=O)c1ccc(-c2cc3c(N)ncc(C(=O)NCCN4CCOCC4)c3s2)cc1 | 177 nM | 963 nM | 757 nM | – | > 25000 nM | > 25000 nM | 7300 nM | > 25000 nM | 0.101
Nc1ncc(C(=O)NCc2ccccc2)c2sc(-c3ccc(N4CCOCC4)cc3)cc12 | 307 nM | > 125000 nM | 2600 nM | – | – | – | – | – | –
CC(C)(C)NS(=O)(=O)c1ccc(-c2cc3c(N)ncc(C(=O)NCCO)c3s2)cc1 | 78 nM | 434 nM | 932 nM | – | > 25000 nM | > 25000 nM | – | – | –
CCNC(=O)c1cnc(N)c2cc(-c3ccc(N4CCOCC4)cc3)sc12 | 133 nM | 967 nM | 1070 nM | – | – | – | – | – | –
CC(C)(C)NC(=O)c1cnc(N)c2cc(-c3ccc(N4CCOCC4)cc3)sc12 | 8820 nM | 10300 nM | 6980 nM | – | – | – | – | – | –

The next lines start with the values.

IC50 [1] | IC50 [2] | IC50 [3] | IC50 [4] | IC50 [5] | IC50 [6] | IC50 (JAK3/JAK1 [7]) | IC50 (JAK3/JAK1 [8]) | fraction unbound (in vitro) | SMILES
211 nM | 1340 nM | 1330 nM | 1810 nM | > 25000 nM | > 25000 nM | – | – | – | CNC(=O)c1cnc(N)c2cc(-c3ccc(N4CCOCC4)cc3)sc12
70 nM | 365 nM | 208 nM | 6850 nM | > 25000 nM | > 25000 nM | – | – | – | CNC(=O)c1cnc(N)c2cc(-c3ccc(OC(F)(F)F)cc3)sc12
39 nM | 188 nM | 202 nM | – | > 25000 nM | > 25000 nM | – | – | – | CNC(=O)c1cnc(N)c2cc(-c3ccc(C(C)(C)C)cc3)sc12
30 nM | 307 nM | 266 nM | 1090 nM | > 25000 nM | > 25000 nM | 625 nM | > 25000 nM | 0.012 | CNC(=O)c1cnc(N)c2cc(-c3ccc(S(=O)(=O)NC(C)(C)C)cc3)sc12
377 nM | 545 nM | 888 nM | > 25000 nM | > 25000 nM | > 25000 nM | – | – | – | CNC(=O)c1cnc(N)c2cc(-c3ccc(C)cc3)sc12
406 nM | 2870 nM | 1990 nM | – | – | – | – | – | – | Nc1ncc(C(=O)Nc2ccccc2)c2sc(-c3ccc(N4CCOCC4)cc3)cc12
36 nM | 118 nM | 146 nM | 1160 nM | > 25000 nM | > 25000 nM | – | – | – | CNC(=O)c1cnc(N)c2cc(-c3ccc(C(C)(C)C#N)cc3)sc12
290 nM | 767 nM | 937 nM | – | > 25000 nM | > 25000 nM | – | – | – | CNC(=O)c1cnc(N)c2cc(-c3ccccc3)sc12

Source: ChEMBL document CHEMBL1938231 (J Med Chem, 2011)
